Test system: MV-4-11 cells
Assay: Gene expression microarray analysis (Affymetrix PrimeView) and GSEA
Assay type: cell-based, human
Set-up: RFU PODN (11730768_x_at) / Fold change /veh PODN (11730768_x_at) / RFU LINC00158 (11744669_a_at) / Fold change /veh LINC00158 (11744669_a_at) / RFU DUSP10 (11751237_a_at) / Fold change /veh DUSP10 (11751237_a_at) / RFU ID3 (11757404_x_at) / Fold change /veh ID3 (11757404_x_at) / RFU PLEKHG5 (11737974_s_at) / Fold change /veh PLEKHG5 (11737974_s_at) / RFU LRRC4B (11730491_at) / Fold change /veh LRRC4B (11730491_at) / RFU GIMAP4 (11747438_a_at) / Fold change /veh GIMAP4 (11747438_a_at) / RFU KRT8 (11758183_x_at) / Fold change /veh KRT8 (11758183_x_at) / RFU CNN1 (11734310_a_at) / Fold change /veh CNN1 (11734310_a_at) / RFU VPS37D (11726825_at) / Fold change /veh VPS37D (11726825_at) / RFU C10orf10 (11716522_x_at) / Fold change /veh C10orf10 (11716522_x_at) / RFU KIR2DL2 /// KIR2DL4 /// KIR2DL5A /// KIR2DL5B /// KIR2DS1 /// KIR2DS2 /// KIR2DS3 /// KIR2DS4 /// KIR3DL3 /// KIR3DL3 /// KIR3DS1 (11738374_at) / Fold change /veh KIR2DL2 /// KIR2DL4 /// KIR2DL5A /// KIR2DL5B /// KIR2DS1 /// KIR2DS2 /// KIR2DS3 /// KIR2DS4 /// KIR3DL3 /// KIR3DL3 /// KIR3DS1 (11738374_at) / RFU C1QL1 (11718748_at) / Fold change /veh C1QL1 (11718748_at) / RFU TMPRSS4 (11747572_a_at) / Fold change /veh TMPRSS4 (11747572_a_at) / RFU HAMP (11756126_x_at) / Fold change /veh HAMP (11756126_x_at) / RFU RNFT2 (11725882_a_at) / Fold change /veh RNFT2 (11725882_a_at) / RFU NR4A2 (11747474_a_at) / Fold change /veh NR4A2 (11747474_a_at) / RFU ABCC12 (11746883_a_at) / Fold change /veh ABCC12 (11746883_a_at) / RFU TMEM136 (11760407_x_at) / Fold change /veh TMEM136 (11760407_x_at) / RFU CLDN22 /// WWC2 (11732394_at) / Fold change /veh CLDN22 /// WWC2 (11732394_at) / RFU HLA-DPB1 (11760878_x_at) / Fold change /veh HLA-DPB1 (11760878_x_at) / RFU SPINT1 (11716480_a_at) / Fold change /veh SPINT1 (11716480_a_at) / RFU GAP43 (11754022_s_at) / Fold change /veh GAP43 (11754022_s_at) / RFU A4GNT (11735810_at) / Fold change /veh A4GNT (11735810_at) / RFU PRB3 (11715151_x_at) / Fold change /veh PRB3 (11715151_x_at) / RFU TUBB4B (11761932_at) / Fold change /veh TUBB4B (11761932_at) / RFU CAPN14 (11732068_a_at) / Fold change /veh CAPN14 (11732068_a_at) / RFU TMCC2 (11721928_a_at) / Fold change /veh TMCC2 (11721928_a_at) / RFU IRGQ (11745062_a_at) / Fold change /veh IRGQ (11745062_a_at) / RFU FAM174B (11720279_a_at) / Fold change /veh FAM174B (11720279_a_at) / RFU TMPRSS4 (11748680_a_at) / Fold change /veh TMPRSS4 (11748680_a_at) / RFU FAM212B (11763350_a_at) / Fold change /veh FAM212B (11763350_a_at) / RFU PLEKHG5 (11743358_a_at) / Fold change /veh PLEKHG5 (11743358_a_at) / RFU ZSCAN30 (11745921_a_at) / Fold change /veh ZSCAN30 (11745921_a_at) / RFU CMKLR1 (11741424_a_at) / Fold change /veh CMKLR1 (11741424_a_at) / RFU LOC101060620 /// MAPK8IP1 (11723275_at) / Fold change /veh LOC101060620 /// MAPK8IP1 (11723275_at) / RFU SPTSSB (11747773_x_at) / Fold change /veh SPTSSB (11747773_x_at) / RFU PRSS12 (11739890_at) / Fold change /veh PRSS12 (11739890_at) / RFU BIN1 (11741810_x_at) / Fold change /veh BIN1 (11741810_x_at) / RFU WNT11 (11732464_a_at) / Fold change /veh WNT11 (11732464_a_at) / RFU C10orf10 (11716521_a_at) / Fold change /veh C10orf10 (11716521_a_at) / RFU C5orf56 (11738089_at) / Fold change /veh C5orf56 (11738089_at) / RFU CYB561 (11721691_x_at) / Fold change /veh CYB561 (11721691_x_at) / RFU ANKRD19P (11752326_a_at) / Fold change /veh ANKRD19P (11752326_a_at) / RFU OR2T12 /// OR2T33 /// OR2T8 (11738714_s_at) / Fold change /veh OR2T12 /// OR2T33 /// OR2T8 (11738714_s_at) / RFU VCAN (11748164_a_at) / Fold change /veh VCAN (11748164_a_at) / RFU JSRP1 (11732532_at) / Fold change /veh JSRP1 (11732532_at) / RFU KRTAP10-11 (11738290_x_at) / Fold change /veh KRTAP10-11 (11738290_x_at) / RFU MYO3A (11730013_a_at) / Fold change /veh MYO3A (11730013_a_at) / RFU EBF3 (11725865_a_at) / Fold change /veh EBF3 (11725865_a_at) / RFU CAMK2N1 (11719241_x_at) / Fold change /veh CAMK2N1 (11719241_x_at) / RFU C5orf56 (11738088_a_at) / Fold change /veh C5orf56 (11738088_a_at) / RFU OLFML3 (11715873_a_at) / Fold change /veh OLFML3 (11715873_a_at) / RFU LOC100653217 /// NTM (11731650_a_at) / Fold change /veh LOC100653217 /// NTM (11731650_a_at) / RFU MAPK11 (11762145_a_at) / Fold change /veh MAPK11 (11762145_a_at) / RFU FIZ1 (11724087_x_at) / Fold change /veh FIZ1 (11724087_x_at) / RFU OASL (11726364_x_at) / Fold change /veh OASL (11726364_x_at) / RFU SOX15 (11748057_x_at) / Fold change /veh SOX15 (11748057_x_at) / RFU CD79A (11719716_a_at) / Fold change /veh CD79A (11719716_a_at) / RFU HIST1H1D (11736915_at) / Fold change /veh HIST1H1D (11736915_at) / RFU CASKIN2 (11723855_a_at) / Fold change /veh CASKIN2 (11723855_a_at) / RFU LOC730098 (11760151_x_at) / Fold change /veh LOC730098 (11760151_x_at) / RFU OR4N2 (11742367_at) / Fold change /veh OR4N2 (11742367_at) / RFU PRRT2 (11749266_a_at) / Fold change /veh PRRT2 (11749266_a_at) / RFU SNX32 (11753110_a_at) / Fold change /veh SNX32 (11753110_a_at) / RFU CDHR5 (11726645_a_at) / Fold change /veh CDHR5 (11726645_a_at) / RFU RCAN1 (11760418_a_at) / Fold change /veh RCAN1 (11760418_a_at) / RFU FAM167A (11723789_a_at) / Fold change /veh FAM167A (11723789_a_at) / RFU FAM26E (11764081_at) / Fold change /veh FAM26E (11764081_at) / RFU ISYNA1 (11749810_s_at) / Fold change /veh ISYNA1 (11749810_s_at) / RFU ACY1 (11761880_at) / Fold change /veh ACY1 (11761880_at) / RFU 11764098_at / Fold change /veh 11764098_at / RFU SAMD14 (11745864_x_at) / Fold change /veh SAMD14 (11745864_x_at) / RFU NPB (11741838_a_at) / Fold change /veh NPB (11741838_a_at) / RFU TMPRSS6 (11731388_a_at) / Fold change /veh TMPRSS6 (11731388_a_at) / RFU KRTAP10-2 (11738614_at) / Fold change /veh KRTAP10-2 (11738614_at) / RFU ARHGAP8 /// PRR5-ARHGAP8 (11727945_x_at) / Fold change /veh ARHGAP8 /// PRR5-ARHGAP8 (11727945_x_at) / RFU KRTAP5-7 /// NADSYN1 (11734609_at) / Fold change /veh KRTAP5-7 /// NADSYN1 (11734609_at) / RFU RASL12 (11751679_a_at) / Fold change /veh RASL12 (11751679_a_at) / RFU CDKN2B (11736163_a_at) / Fold change /veh CDKN2B (11736163_a_at) / RFU PRF1 (11729649_at) / Fold change /veh PRF1 (11729649_at) / RFU, ZNF638 /// ZNF638-IT1 / Fold change vs veh, ZNF638 /// ZNF638-IT1 / RFU, PANK3 / Fold change vs veh, PANK3 / RFU, SH3YL1 / Fold change vs veh, SH3YL1 / RFU, ZEB2 / Fold change vs veh, ZEB2 / RFU, NRIP1 / Fold change vs veh, NRIP1 / RFU, PTTG1IP / Fold change vs veh, PTTG1IP / RFU, CAPN2 / Fold change vs veh, CAPN2 / RFU, MED14 / Fold change vs veh, MED14 / RFU, SNORA58 / Fold change vs veh, SNORA58 / RFU, C1orf63 / Fold change vs veh, C1orf63 / RFU, LRRFIP1 / Fold change vs veh, LRRFIP1 / RFU, NDUFAF7 / Fold change vs veh, NDUFAF7 / RFU, SLC12A2 / Fold change vs veh, SLC12A2 / RFU, IBTK / Fold change vs veh, IBTK / RFU, ESF1 / Fold change vs veh, ESF1 / Fold change vs veh, TMEM50B / RFU, TAOK1 / Fold change vs veh, TAOK1 / RFU, ACBD3 / Fold change vs veh, ACBD3 / RFU, TMA16 / Fold change vs veh, TMA16 / RFU, RWDD3 / Fold change vs veh, RWDD3 / RFU, BCAT1 / Fold change vs veh, BCAT1 / RFU, EDEM3 / Fold change vs veh, EDEM3 / RFU, TMEM33 / Fold change vs veh, TMEM33 / RFU, WDR75 / Fold change vs veh, WDR75 / RFU, AHCTF1 / Fold change vs veh, AHCTF1 / RFU, TFRC / Fold change vs veh, TFRC / RFU, ZDHHC17 / Fold change vs veh, ZDHHC17 / RFU, NOM1 / Fold change vs veh, NOM1 / RFU, ARL8B / Fold change vs veh, ARL8B / RFU, ZBTB11 / Fold change vs veh, ZBTB11 / RFU, TAMM41 / Fold change vs veh, TAMM41 / RFU, KIAA1704 /// LOC100996395 / Fold change vs veh, KIAA1704 /// LOC100996395 / RFU, ING1 / Fold change vs veh, ING1 / RFU, TRMT61B / Fold change vs veh, TRMT61B / RFU, FUBP3 / Fold change vs veh, FUBP3 / RFU, TP53 / Fold change vs veh, TP53 / RFU, TNKS2 / Fold change vs veh, TNKS2 / RFU, ZFP14 / Fold change vs veh, ZFP14 / RFU, ACTR2 / Fold change vs veh, ACTR2 / RFU, PPP3R1 / Fold change vs veh, PPP3R1 / RFU, PIK3R1 / Fold change vs veh, PIK3R1 / RFU, HNRNPA1 / Fold change vs veh, HNRNPA1 / RFU, RNF170 / Fold change vs veh, RNF170 / RFU, ZNF28 / Fold change vs veh, ZNF28 / RFU, RNGTT / Fold change vs veh, RNGTT / RFU, OGT / Fold change vs veh, OGT / RFU, BRD1 / Fold change vs veh, BRD1 / RFU, MARS / Fold change vs veh, MARS / RFU, ZNF655 / Fold change vs veh, ZNF655 / RFU, FAHD1 / Fold change vs veh, FAHD1 / RFU, BDP1 / Fold change vs veh, BDP1 / RFU, LRRCC1 / Fold change vs veh, LRRCC1 / RFU, ARID1A / Fold change vs veh, ARID1A / RFU, ZNF146 / Fold change vs veh, ZNF146 / RFU, ZNF330 / Fold change vs veh, ZNF330 / RFU, GPN3 / Fold change vs veh, GPN3 / RFU, C9orf123 / Fold change vs veh, C9orf123 / RFU, N4BP2L2 / Fold change vs veh, N4BP2L2 / RFU, ARFIP1 / Fold change vs veh, ARFIP1 / RFU, FAM179B / Fold change vs veh, FAM179B / RFU, BCL10 / Fold change vs veh, BCL10 / RFU, UHRF1BP1L / Fold change vs veh, UHRF1BP1L / RFU, BET1 / Fold change vs veh, BET1 / RFU, CNOT2 / Fold change vs veh, CNOT2 / RFU, ZNF268 / Fold change vs veh, ZNF268 / Fold change vs veh, ZNF507 / RFU, DGCR2 / Fold change vs veh, DGCR2 / RFU, WDSUB1 / Fold change vs veh, WDSUB1 / Fold change vs veh, HSP90B1 /// MIR3652 / RFU, ADSS / Fold change vs veh, ADSS / RFU, GK / Fold change vs veh, GK / RFU, ZNF148 / Fold change vs veh, ZNF148 / RFU, TAF9 / Fold change vs veh, TAF9 / RFU, SLC1A5 / Fold change vs veh, SLC1A5 / RFU, SLMO2 / Fold change vs veh, SLMO2 / RFU, ABCC4 / Fold change vs veh, ABCC4 / RFU, LOC101060439 /// RAP1B / Fold change vs veh, LOC101060439 /// RAP1B / RFU, RFX7 / Fold change vs veh, RFX7 / RFU, GTPBP10 / Fold change vs veh, GTPBP10 / RFU, CNEP1R1 / Fold change vs veh, CNEP1R1 / RFU, BIVM-ERCC5 /// ERCC5 / Fold change vs veh, BIVM-ERCC5 /// ERCC5 / RFU, ILF3 / Fold change vs veh, ILF3 / RFU 11762660_at / Fold change /veh 11762660_at / RFU VCAN (11757783_s_at) / Fold change /veh VCAN (11757783_s_at) / RFU DDX43 (11728927_at) / Fold change /veh DDX43 (11728927_at) / RFU KRT8 (11758188_x_at) / Fold change /veh KRT8 (11758188_x_at) / RFU NKD1 (11759106_at) / Fold change /veh NKD1 (11759106_at) / RFU SRD5A1 (11742802_a_at) / Fold change /veh SRD5A1 (11742802_a_at) / RFU TPSAB1 /// TPSB2 (11721975_s_at) / Fold change /veh TPSAB1 /// TPSB2 (11721975_s_at) / RFU GSTM3 (11746129_a_at) / Fold change /veh GSTM3 (11746129_a_at) / RFU IL23R (11737362_x_at) / Fold change /veh IL23R (11737362_x_at) / RFU TMEM51 (11727254_a_at) / Fold change /veh TMEM51 (11727254_a_at) / RFU PIWIL2 (11732686_x_at) / Fold change /veh PIWIL2 (11732686_x_at) / RFU ORM1 (11744905_x_at) / Fold change /veh ORM1 (11744905_x_at) / RFU CCDC152 (11743942_at) / Fold change /veh CCDC152 (11743942_at) / RFU ECM1 (11717891_a_at) / Fold change /veh ECM1 (11717891_a_at) / RFU IL23R (11748794_a_at) / Fold change /veh IL23R (11748794_a_at) / RFU TNFAIP8L3 (11732012_x_at) / Fold change /veh TNFAIP8L3 (11732012_x_at) / RFU MBOAT4 (11741988_at) / Fold change /veh MBOAT4 (11741988_at) / RFU 11764193_at / Fold change /veh 11764193_at / RFU TMEM53 (11763286_at) / Fold change /veh TMEM53 (11763286_at) / RFU MAGEB2 (11727129_at) / Fold change /veh MAGEB2 (11727129_at) / RFU TMEM200A (11744735_a_at) / Fold change /veh TMEM200A (11744735_a_at) / RFU CCDC152 (11751479_a_at) / Fold change /veh CCDC152 (11751479_a_at) / RFU FAM211A (11726209_a_at) / Fold change /veh FAM211A (11726209_a_at) / RFU RGS16 (11746705_a_at) / Fold change /veh RGS16 (11746705_a_at) / RFU VCAN (11755009_s_at) / Fold change /veh VCAN (11755009_s_at) / RFU RHOB (11743442_s_at) / Fold change /veh RHOB (11743442_s_at) / RFU RGS16 (11720943_a_at) / Fold change /veh RGS16 (11720943_a_at) / RFU RGS16 (11720944_at) / Fold change /veh RGS16 (11720944_at) / RFU, VPS4B / Fold change vs veh, VPS4B / RFU, CREB1 / Fold change vs veh, CREB1 / RFU, DNAJC13 / Fold change vs veh, DNAJC13 / RFU, GNAQ / Fold change vs veh, GNAQ / RFU, CDK5R1 / Fold change vs veh, CDK5R1 / RFU, ZRANB3 / Fold change vs veh, ZRANB3 / RFU, CUL4A / Fold change vs veh, CUL4A / RFU, CCNY / Fold change vs veh, CCNY / RFU, UFL1 / Fold change vs veh, UFL1 / RFU, COG3 / Fold change vs veh, COG3 / RFU, DIAPH2 / Fold change vs veh, DIAPH2 / RFU, SKA2 / Fold change vs veh, SKA2 / RFU, AFF3 / Fold change vs veh, AFF3 / RFU, LMF1 / Fold change vs veh, LMF1 / RFU, IPO11 / Fold change vs veh, IPO11 / RFU, DFFB / Fold change vs veh, DFFB / RFU, FOXP1 / Fold change vs veh, FOXP1 / RFU, CARD8 / Fold change vs veh, CARD8 / RFU, STRN3 / Fold change vs veh, STRN3 / RFU, ADK / Fold change vs veh, ADK / RFU, RASSF2 / Fold change vs veh, RASSF2 / RFU, WIPF1 / Fold change vs veh, WIPF1 / RFU, LARP1B / Fold change vs veh, LARP1B / RFU, RASA1 / Fold change vs veh, RASA1 / RFU, RB1 / Fold change vs veh, RB1 / RFU, PPFIA1 / Fold change vs veh, PPFIA1 / RFU, MAT2A / Fold change vs veh, MAT2A / RFU, CCT5 / Fold change vs veh, CCT5 / RFU, WDR92 / Fold change vs veh, WDR92 / RFU, CUX1 / Fold change vs veh, CUX1 / RFU, TTC7A / Fold change vs veh, TTC7A / RFU, TMEM135 / Fold change vs veh, TMEM135 / RFU, DEPTOR / Fold change vs veh, DEPTOR / RFU, CPM / Fold change vs veh, CPM / RFU, DNAJB6 / Fold change vs veh, DNAJB6 / RFU, CACNA2D3 / Fold change vs veh, CACNA2D3 / RFU, DTX4 / Fold change vs veh, DTX4 / RFU, TFCP2 / Fold change vs veh, TFCP2 / RFU, GMCL1 /// GMCL1P1 / Fold change vs veh, GMCL1 /// GMCL1P1 / RFU, AEBP2 / Fold change vs veh, AEBP2 / RFU, SNHG1 /// SNORD22 /// SNORD25 /// SNORD26 /// SNORD27 /// SNORD28 /// SNORD29 /// SNORD31 / Fold change vs veh, SNHG1 /// SNORD22 /// SNORD25 /// SNORD26 /// SNORD27 /// SNORD28 /// SNORD29 /// SNORD31 / Fold change (Aza/veh), C12orf56 (ProbeSet 11735607_a_at) / Fold change (ACY-1035/veh), C12orf56 (ProbeSet 11735607_a_at) / Fold change (Aza/veh), FGFR1OP (ProbeSet 11751329_s_at) / Fold change (ACY-1035/veh), FGFR1OP (ProbeSet 11751329_s_at) / Fold change (Aza/veh), VPS36 (ProbeSet 11739960_a_at) / Fold change (ACY-1035/veh), VPS36 (ProbeSet 11739960_a_at) / RFU SYPL1 (11715823_x_at) / Fold change /veh SYPL1 (11715823_x_at) / RFU IGFBP7 (11715501_s_at) / Fold change /veh IGFBP7 (11715501_s_at) / RFU REEP3 (11722064_at) / Fold change /veh REEP3 (11722064_at) / RFU IGLL1 (11728026_x_at) / Fold change /veh IGLL1 (11728026_x_at): dose or concentration left out as unconfirmed
Conditions: MV-4-11 cells, 48 hours

With `Nc1ccc(-c2cccs2)cc1NC(=O)c1ccc2c(c1)cc(C1CC1)n2CCN1CCOCC1` [ACY-1035] the “RFU NKD1 (11759106_at)” value was 19.24 RFU.
